In the supplement of paper PMC6723410:

Tests used:
GUMC-403 [1] = test: AC50 for reduction of cell viability; higher = less potent; settings: 48 h
GUMC-403 [2] = test: viability at highest tested concentration (max response) relative to DMSO (% of DMSO control); higher = less cytotoxic; settings: library / dose series: MIPE library, 11-point 1:3 dilution, 48 h
Outline: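 This value is viability at the highest tested concentration relative to vehicle control. GUMC-403 papilloma cells from a patient, grown by conditional reprogramming, were plated at 700/well in 1536-well plates and given 23 nL of compound by pin tool for 48 h. CellTiter-Glo luminescence on a ViewLux was normalised with vehicle wells at 100% and empty wells at 0%.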

[3] = library / dose series: MIPE library, 11-point 1:3 dilution
[4] = library / dose series: NPC library, 8-point 1:5 dilution

Structure (SMILES) | AC50 for reduction of cell viability (GUMC-403 [1]; [3]) | viability (GUMC-403 [2]; top concentration 46.1 µM) | AC50 for reduction of cell viability (GUMC-403 [1]; [4]) | viability (GUMC-403 [2]; top concentration 92.2 µM)
CC(C)Oc1cc(Nc2nc(N[C@@H](C)c3ccc(F)cn3)ncc2Cl)n[nH]1 | 8330 nM | 58.4 |  | 
CC(C)(O)Cn1c(NC(=O)c2ccc(-c3cn[nH]c3)s2)nc2cc(CN3CCOCC3)ccc21 | 2350 nM | 5.55 |  | 
CSCC[C@H](NC(=O)[C@H](Cc1c[nH]c2ccccc12)NC(=O)CCNC(=O)OC(C)(C)C)C(=O)N[C@@H](CC(=O)O)C(=O)N[C@@H](Cc1ccccc1)C(N)=O | 5900 nM | 30.1 |  | 
CC#C[C@]1(O)CC[C@H]2[C@@H]/3CCC/4=C/C(=O)CCC4=C3[C@H](C[C@]12C)C5=CC=C(C=C5)N(C)C | 833 nM | 59 |  | 
Nc1nc(NCCNc2ncc(-n3ccnc3)c(-c3ccc(Cl)cc3Cl)n2)ccc1[N+](=O)[O-] | 2350 nM | 61.4 |  | 
Cn1cc(CNCC2CCN(c3ncc(C(=O)NO)cn3)CC2)c2ccccc21 | 2960 nM | 33.5 |  | 
N[S+](=O)([O-])OC[C@@H]1C[C@@H](n2ccc3c(N[C@H]4CCc5ccccc54)ncnc32)C[C@@H]1O | 469 nM | 60.8 |  | 
CC/1=C(\O)C(=O)\C=C2/C1=C/C=C3\[C@@]2(C)CC[C@@]4(C)[C@@H]5C[C@@](C)(CC[C@]5(C)CC[C@]34C)C(O)=O | 8330 nM | 6.06 |  | 
Nc1cc(C(F)(F)F)c(-c2cc(N3CCOCC3)nc(N3CCOCC3)n2)cn1 | 1480 nM | 44 |  | 
N[S+](=O)([O-])c1cccc2c1C(=O)c1cccc(O)c1C2=O | 13200 nM | 4.44 |  | 
CC(=O)Nc1ccc([C@H](C)C(=O)Nc2ncc(C(C)C)s2)cc1 | 1660 nM | 15.9 |  | 
COC1=CC(c2cc3ccccc3[nH]2)=N/C1=C/c1[nH]c(C)cc1C | 10500 nM | 26.6 |  | 
C[C@@H]\1COC(=N1)\NC2=CC3=C(C=C2)N=CN=C3NC4=CC(=C(OCC5=NC=CS5)C=C4)Cl | 590 nM | 54.5 |  | 
CC(C)n1nc(-c2cc3cc(O)ccc3[nH]2)c2c(N)ncnc21 |  | 69.2 | 1190 nM | 
CC(C)C1=C(O)C=C(O)C(=C1)C/2=N/NC(=O)N2C3=CC4=C(C=C3)[N](C)C=C4 | 148 nM | 61.4 |  | 
Oc1ccc(-c2ccc(-c3cc(Nc4cccc(CNC5CC5)c4)[nH]n3)cc2)c(O)c1 | 13200 nM | 13.7 |  | 
CN(c1ncccc1CNc1nc(Nc2ccc3c(c2)CC(=O)N3)ncc1C(F)(F)F)[S+](C)(=O)[O-] | 7430 nM | 28 |  | 
COc1cccc2c1C(=O)c1c(O)c3c(c(O)c1C2=O)C[C@@](O)(C(C)=O)C[C@@H]3O[C@H]1C[C@H](N)[C@H](O)[C@H](C)O1 | 372 nM | 33.5 |  | 
COc1ccc(-c2nc(N3CCOCC3)c3sc(CN(C)c4ncc(C(=O)NO)cn4)cc3n2)cn1 | 1050 nM | 44.7 |  | 

Structure (SMILES) | AC50 for reduction of cell viability (GUMC-403 [1]; [3]) | viability (GUMC-403 [2]; top concentration 46.1 µM) | AC50 for reduction of cell viability (GUMC-403 [1]; [4]) | viability (GUMC-403 [2]; top concentration 92.2 µM)
Cc1ccc2nc(NCCN)c3ncc(C)n3c2c1 | 13200 nM | 33.4 |  | 
OC[C@H]1OC(OC2=CC3=C(C(=C2)O)C(=O)\C(=C/O3)C4=CC=C(O)C=C4)[C@H](O)[C@@H](O)[C@@H]1O (stereo not given in full) | 9350 nM | 21.4 |  | 
CN(C)C1=CC=C(C=C1)C(C2=CC=C(C=C2)N(C)C)=C/3\C=C/C(/C=C3)=[N+](C)C | 14800 nM | 4.73 |  | 
CN(C)c1ccc2cc(C(=O)N[C@@H](CCCNC(=N)CCl)C(=O)NCc3ccccc3)ccc2c1 | 20900 nM | 46.3 |  | 
ClC1=CC\2=C(NC(=O)\C(=C2N[C@@H]3CN4CCC3CC4)C5=NC6=C([NH]5)C=CC=C6)C=C1 | 3320 nM | 16.4 |  | 
C=CCNc1c(O)cc2c(O)c1C[C@@H](C)C[C@H](OC)[C@H](O)[C@@H](C)/C=C(/C)[C@H](OC(N)=O)[C@@H](OC)/C=C\C=C(\C)C(=O)N2 | 4690 nM | 68.9 |  | 
CC(C)C[C@H](NC(=O)CNC(=O)c1cc(Cl)ccc1Cl)B(O)O | 3320 nM | 14.7 |  | 
CNC(=O)c1ccccc1Nc1nc(Nc2ccc(N3CCOCC3)cc2OC)ncc1Cl | 1480 nM | 9.51 |  | 
CC(=O)N1CCN(c2ccc(OCc3nn(C)c(C)c3-c3cccc4c(CCCOc5cccc6ccccc56)c(C(=O)O)n(Cc5cccnc5)c34)cc2)CC1 | 7430 nM | 3.86 |  | 
CC(=O)Nc1nc(C)c(-c2ccc(Cl)c([S+](=O)([O-])NCCO)c2)s1 | 14800 nM | 12.5 |  | 
CCc1cnn2c(NCc3ccc[n+]([O-])c3)cc(N3CCCC[C@H]3CCO)nc12 | 46.9 nM | 62.2 |  | 
C[C@@]12C(=O)OC(=O)[C@@]1(C)C1CCC2O1 | 5900 nM | 21.1 |  | 
COC1=CC=C(C=N1)C/2=C/C3=C(C)N=C(N)N=C3N(C4CCC(CC4)OCCO)C2=O (stereo not given) | 264 nM | 4.47 |  | 
O=C(NC1CCNCC1)c1n[nH]cc1NC(=O)c1c(Cl)cccc1Cl | 1050 nM | 10.5 |  | 
Cc1n[nH]c2ccc(-c3cncc(OC[C@@H](N)Cc4c[nH]c5ccccc45)c3)cc12 | 1870 nM | 7.23 |  | 
CN(C)CCN(C)C(=O)c1ccc(NC(=O)Nc2ccc(-c3nc(N4CCOCC4)c4ccn(CC(F)(F)F)c4n3)cc2)cc1 | 118 nM | 5.64 |  | 
C[C@@H]1O[C@@H](O[C@H]2C[C@@H](O)[C@]3(CO)[C@H]4[C@H](O)C[C@]5(C)[C@@H](C6=CC(=O)OC6)CC[C@]5(O)[C@@H]4CC[C@]3(O)C2)[C@H](O)[C@H](O)[C@H]1O | 29.6 nM | 75.4 |  | 
CC(C)C[C@H](NC(=O)[C@H](Cc1ccccc1)NC(=O)c1cnccn1)B(O)O | 264 nM | 3.84 | 150 nM | 
CC[S+](=O)([O-])c1cccc(-c2cc(C(=O)NC3CCN(C)CC3)c(C)c3[nH]c4ncc(C)cc4c23)c1 | 4690 nM | 75.8 |  | 

Structure (SMILES) | AC50 for reduction of cell viability (GUMC-403 [1]; [3]) | viability (GUMC-403 [2]; top concentration 46.1 µM) | AC50 for reduction of cell viability (GUMC-403 [1]; [4]) | viability (GUMC-403 [2]; top concentration 92.2 µM)
COc1cc(Nc2ncc(F)c(Nc3ccc4c(n3)N(COP(=O)(O)O)C(=O)C(C)(C)O4)n2)cc(OC)c1OC | 935 nM | 34.2 |  | 
CCNC(=O)Nc1ccc(-c2nc3c(c(N4CCOC[C@@H]4C)n2)CCN(C2COC2)C3)cc1 | 1180 nM | 60.3 |  | 
N#CC(=C(/N)Sc1ccccc1N)/C(C#N)=C(\N)Sc1ccccc1N | 4690 nM | 50.4 |  | 
NC(=O)[C@@H](CCC(F)(F)F)N(Cc1ccc(-c2ncon2)cc1F)[S+](=O)([O-])c1ccc(Cl)cc1 | 132 nM | 76.2 |  | 
COc1cc2ncnc(Nc3ccc(F)c(Cl)c3)c2cc1OCCCN1CCOCC1 | 270 nM |  |  | 58.7
Cc1nc2cnc3ccc(C#Cc4cccnc4)cc3c2n1-c1ccc(C(C)(C)C#N)cc1 | 93.5 nM | 46.6 |  | 
O=C(Nc1cc(C(F)(F)F)cc(C(F)(F)F)c1)c1cc(Cl)ccc1O | 1480 nM | 70 |  | 
COC(=O)Nc1ccc(-c2nc(N3CCOCC3)c3cnn(C4CCN(C(=O)OC)CC4)c3n2)cc1 | 26.4 nM | 13.8 |  | 
CC(=O)NCC(=O)N1[C@@H]2CC[C@H]1c1ccc(Nc3ncc(C(F)(F)F)c(NC4CCC4)n3)cc12 | 18700 nM | 4.61 |  | 
CC1(C)CC(=O)c2c(C(F)(F)F)nn(-c3ccc(C(N)=O)c(NC4CCC(O)CC4)c3)c2C1 (stereo not given) | 296 nM | 67.7 |  | 
CN(C)CCCN1c2ccccc2CCc2ccc(Cl)cc21 | 1320 nM | 36 |  | 
COc1cc2ncnc(Nc3cc(Br)c(O)c(Br)c3)c2cc1OC | 1480 nM | 73.9 |  | 
CC(C)C[C@@H](C=O)NC(=O)[C@H](CC(C)C)NC(=O)[C@H](CC(C)C)NC(=O)OCc1ccccc1 | 10500 nM | 9.05 |  | 
CC[C@H](NC1=C2N=C[NH]C2=NC=N1)C/3=N/C4=C(C(=CC=C4)F)C(=O)N3C5=CC=CC=C5 | 3720 nM | 75.5 |  | 
CCN1CCN(CC1)CC(=O)NC2=CC=C(C3=C2C4=C(S3)C=CC=C4)C5=C6O\C(=C/C(=O)C6=CC=C5)N7CCOCC7 | 2960 nM | 58.7 |  | 
CC(C)CC(=O)Nc1n[nH]c2c1CN(C(=O)C1CCN(C)CC1)C2(C)C | 1480 nM | 15.9 |  | 
O=C(Nc1cccc(Nc2ncc(Br)c(NCCc3cnc[nH]3)n2)c1)N1CCCC1 | 20900 nM | 6.39 |  | 
Nc1nc(N)c2nc(-c3cccc(O)c3)c(-c3cccc(O)c3)nc2n1 | 5260 nM | 32.4 |  | 
C[C@@H](Oc1ccc2[nH]nc(/C=C/c3cnn(CCO)c3)c2c1)c1c(Cl)cncc1Cl | 16600 nM | 18.4 |  | 
